Data as given in patent US10640545B2 (THE GOVERNORS OF THE UNIVERSITY OF ALBERTA, priority 2017, dated 2020).
*1 amine or outer side, *2 acyl side, *3 side chain or, on linkers, in order; H or OH if unused. Where a SMILES comes first, the peptide text is derived from it. [ ]: non-standard residue; d: D form. The star is where a group is joined. Phe(4-Br) = N[C@@H](Cc1ccc(Br)cc1)C(=O)O; azaLeu = CC(C)CN(N[*:1])C(=O)[*:2]; Palmitoyl = CCCCCCCCCCCCCCCC(=O)*; NMeL = CN[C@@H](CC(C)C)C(=O)O; pGlu = O=C1CC[C@@H](C(=O)O)N1; Nle = CCCC[C@H](N)C(=O)O; Aib = CC(C)(N)C(=O)O

How the values were obtained:
[1] = tested on: recombinant human neprilysin (rhNEP, Sino Biological); assay: rhNEP diluted in Tris buffer (100 mM Tris, 100 mM NaCl, 10 μM ZnCl2, pH 7.5), 3.1 nM final concentration; details: 37° C., up to 72 h
[2] = target: Human plasma kallikrein KLKB1 (Homo sapiens, UniProt P03952); assay: Plasma kallikrein KLKB1 qualitative cleavage assay (MALDI-TOF)
Description: Native apelin-17 (2) and apelin peptides 5, 56, 57, 58 and 59 were dissolved in Milli-Q water (1 mM). Human plasma kallikrein KLKB1 were each reconstituted in Tris buffer (100 mM TrisHCl, 10 mM CaCl2), 150 mM NaCl) and diluted with Tris buffer (50 mM TrisHCl, 250 mM NaCl) to give a KLKB1 concentration of […]. The KLKB1 enzyme was then preincubated at 37° C. for 10 minutes prior to the addition of 5 μL of apelin peptide (1 mM). Aliquots (1 μL) were taken at 1, 2, 4, 6, 12, 24, 36, and 48 hours and analyzed with MALDI-TOF mass spectrometry to qualitatively determine the time point at which degradation products could be observed (Table 4).

[3] = target: T1, KLKB1 (plasma kallikrein) (Homo sapiens, UniProt P03952); assay: In vitro KLKB1 stability (half-life); type: in vitro ADME; details: human
T1 construct: purchased Novoprotein

[4] = target: neprilysin (NEP) (Homo sapiens, UniProt P08473); assay: in vitro; details: human, pH 7.5
Description: This experiment compared the in vitro NEP stability of the Arg/Leu peptides of the embodiments to native apelin isoforms and their A2 substituted counterparts. Peptides were incubated with recombinant human NEP (rhNEP, Sino Biological) at 37° C. for up to 72 h, and the extent of degradation was analyzed via LC-MS because of the overlapping elution patterns of peptide fragments. […] (McKinnie, S. M. K., et al. ChemBioChem: 17, 1495-1498 (2016)). […] (Dion, N., et al., Biochem. J.: 311, 623-627 (1995); Bateman Jr., R. C., et al., J. Biol. Chem.: 264, 6151-6157 (1989); McMurray, J. J. et al., J. Med.: 371, 993-1004 (2014)).
Apelin peptides were dissolved in Milli-Q water (1 mM). Recombinant human neprilysin (rhNEP, Sino Biological) was reconstituted in Tris buffer (100 mM Tris, 100 mM NaCl, 10 μM ZnCl2, pH 7.5). To initiate the assay, rhNEP was diluted in Tris buffer (3.1 nM final concentration), and preincubated at 37° C. for 10 minutes prior to the addition of 5 μL of apelin peptide (1 mM) and 1.5 μL internal standard dansyl-Tyr-Val-Gly-OH (1 mM). Aliquots (10 μL) were removed at 0, 1, 4, 24, and 72 h, quenched with 0.1 M EDTA (10 μL), diluted to 100 μL with Milli-Q water and analyzed by LC-MS. Assays were performed in triplicate (n=3) for each time point. Integrated peak areas of the parent apelin peptide and internal standard derived from LC-MS analyses, were extracted using Mass Hunter software (version B.04.00) and compared in positive extracted ion count modus (+EIC, extracted-ion chromatogram). […] (apelin:dansyl-YVG), to the same ratio at the different assay time points. The decrease in apelin:dansyl-YVG ratio was converted to a percentage of cleaved peptide over time.
The extent of degradation was analyzed via LC-MS because of the overlapping elution patterns of peptide fragments (NEP).
Native apelin-17 (2) and apelin peptides 5, 54, 56, 57, 58 and 59 were dissolved in Milli-Q water (1 mM). Recombinant human neprilysin (rhNEP, Sino Biological) was reconstituted in Tris buffer (100 mM Tris, 100 mM NaCl, 10 μM ZnCl2, pH 7.5). To initiate the assay, rhNEP was diluted in Tris buffer (3.1 nM final concentration) and preincubated at 37° C. for 10 min prior to the addition of 5 μL of apelin peptide (1 mM) and 1.5 μL of internal standard dansyl-Tyr-Val-Gly-OH (1 mM). Aliquots (10 μL) were removed at 0, 1, 4, 24, and 72 h, quenched with 0.1 M EDTA (10 μL), diluted to 100 μL with Milli-Q water, and analyzed by LC-MS. Assays were performed in triplicate (n=3) for each time point. Integrated peak areas of the parent apelin peptide and internal standard derived from LC-MS analyses were extracted using Mass Hunter software (version B.04.00) and compared in positive extracted ion count modus (+EIC). The extent of proteolysis was determined by comparing the initial (0 h) ratio of the integrated extracted ions of the parent apelin peptide to the internal dansyl-YVG standard (apelin/dansyl-YVG) to the same ratio at the different assay time points. The decrease in apelin/dansyl-YVG ratio was converted to a percentage of cleaved peptide over time.

[5] = target: T2, wild-type rat apelin receptor (Rattus norvegicus, UniProt Q9JHG3); assay: Radioligand binding, displacement of [125I]-pyr-1-apelin-13 on CHO cell membranes
T2 construct: expressed in transfected cells
T2 sequence (Q9JHG3 1-377): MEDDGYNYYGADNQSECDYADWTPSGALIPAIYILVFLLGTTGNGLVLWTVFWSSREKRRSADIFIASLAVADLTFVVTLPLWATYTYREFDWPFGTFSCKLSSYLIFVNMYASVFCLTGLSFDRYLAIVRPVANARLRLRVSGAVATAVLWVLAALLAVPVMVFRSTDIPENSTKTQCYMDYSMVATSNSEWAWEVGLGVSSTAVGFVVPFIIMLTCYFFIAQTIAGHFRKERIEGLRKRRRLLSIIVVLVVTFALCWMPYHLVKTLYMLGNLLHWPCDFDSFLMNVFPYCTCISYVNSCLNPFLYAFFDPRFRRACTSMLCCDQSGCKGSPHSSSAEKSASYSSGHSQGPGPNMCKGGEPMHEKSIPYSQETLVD
Description: This experiment evaluated the ability of peptides of the present embodiments to bind to the wild-type rat apelin receptor, in order to examine the impact of synthetic modification within the critical RPRL motif of the apelin peptides.
Membrane preparations from CHO cells stably expressing the wild-type rat apelin receptor-EGFP were prepared as previously described (Gerbier et al., New Structural Insights Into The Apelin Receptor: Identification Of Key Residues For Apelin binding; FASEB J. 2015, 29, 314-322; Iturrioz et. al., Development Of Original Metabolically-Stable Apelin-17 Peptides With Diuretic And Cardiovascular Effects; FASEB J. 2017, 31, 687-700.) Crude membrane preparations (1 μg total mass of membranes/assay) were incubated for 3 h at 20° C. with 0.2 nM [^125I]-pyr-1-apelin-13 (monoiodinated on Lys^8 with Bolton-Hunter reagent, Perkin Elmer, Wellesley, Mass., USA) in binding buffer (50 mM HEPES, 5 mM MgCl2 1149 pH 7.5, BSA 1%) alone or in presence of the different compounds at various concentrations. The reaction was stopped by adding 4 mL of cold binding buffer, filtered on Whatman GF/C filters and washed with 5 mL of cold binding buffer. Radioactivity was then counted using a Wizard 1470 Wallac gamma counter (Perkin Elmer, Turku, Finland). Binding experiment data were analyzed with Graph Pad Prism.

[6] = in vitro; details: human, plasma
[7] = tested on: isolated rat hearts; assay: Langendorff isolated heart, ischemia-reperfusion injury; details: ex vivo heart, 30 min ischemia, peptide at start of reperfusion for 10 min at 1 pM
Description: The ex vivo heart was assessed for a variety of parameters (heart rate (HR); left ventricle developed pressure (LVDP); maximum derivative of change in systolic pressure over time (max dP/dt); minimum derivative of change in diastolic pressure over time (min dP/dt); and rate-pressure product (RPP)) indicative of general heart function and performance (FIG. 11).
Langendorff heart perfusion and ischemia-reperfusion injury were prepared and cardiac function was measured. Mice were heparinized and anaesthetized with 1.5-2% isoflurane inhalation. The heart was excised, mounted on a Langendorff system, and perfused at a consistent pressure of 80 mmHg with modified Krebs-Henseleit solution (116 mM NaCl, 3.2 mM KCl, 2.0 mM CaCl2), 1.2 mM MgSO4, 25 mM NaHCO3, 1.2 mM KH2PO4, 11 mM glucose, 0.5 mM EDTA and 2 mM pyruvate), which was kept at 37° C. and continuously oxygenated with 95% O2 and 5% CO2 which maintained the perfusion buffer at pH 7.4. After stabilization and 10 min baseline recording, global ischemia was induced for 30 min followed by 40 min of reperfusion. Apelin 17 (2) or apelin peptides (11, 17, 18, or 19) were given at the start of reperfusion for 10 min at a concentration of 1 pM. Left ventricular functions were obtained continuously by PowerLab system (ADInstruments, Australia). Data was reported as mean value of every 5 min. Left ventricular functions were reported as: Left Ventricular Developed Pressure (LVDP); Heart rate (HR); maximum derivative of change in systolic pressure over time (max dP/dt); minimum derivative of change in diastolic pressure over time (min dP/dt); and Rate Pressure Product (RPP).

Sequence of neprilysin (NEP) (P08473 whole entry, the tested form may be a part, canonical isoform): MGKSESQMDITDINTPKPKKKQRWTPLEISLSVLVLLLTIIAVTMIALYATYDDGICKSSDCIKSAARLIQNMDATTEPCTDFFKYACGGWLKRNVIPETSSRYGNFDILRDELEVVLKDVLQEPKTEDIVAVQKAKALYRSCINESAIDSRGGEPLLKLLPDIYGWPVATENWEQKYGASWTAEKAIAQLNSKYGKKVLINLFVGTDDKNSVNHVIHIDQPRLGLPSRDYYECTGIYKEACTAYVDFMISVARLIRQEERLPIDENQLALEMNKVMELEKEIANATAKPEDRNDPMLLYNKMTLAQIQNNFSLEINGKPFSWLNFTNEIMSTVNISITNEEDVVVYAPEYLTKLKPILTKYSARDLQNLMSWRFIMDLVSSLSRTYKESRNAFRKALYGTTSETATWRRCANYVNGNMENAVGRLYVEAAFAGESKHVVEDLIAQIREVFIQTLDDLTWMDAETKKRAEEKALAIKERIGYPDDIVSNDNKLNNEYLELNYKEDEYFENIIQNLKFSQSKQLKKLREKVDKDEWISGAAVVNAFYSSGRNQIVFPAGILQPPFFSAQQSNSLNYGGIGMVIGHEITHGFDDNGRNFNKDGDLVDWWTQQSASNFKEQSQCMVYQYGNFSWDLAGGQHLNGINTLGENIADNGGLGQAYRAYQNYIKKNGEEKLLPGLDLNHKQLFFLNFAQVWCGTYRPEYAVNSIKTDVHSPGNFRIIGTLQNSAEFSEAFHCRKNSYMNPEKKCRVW
Sequence of Human plasma kallikrein KLKB1 (P03952 20-638): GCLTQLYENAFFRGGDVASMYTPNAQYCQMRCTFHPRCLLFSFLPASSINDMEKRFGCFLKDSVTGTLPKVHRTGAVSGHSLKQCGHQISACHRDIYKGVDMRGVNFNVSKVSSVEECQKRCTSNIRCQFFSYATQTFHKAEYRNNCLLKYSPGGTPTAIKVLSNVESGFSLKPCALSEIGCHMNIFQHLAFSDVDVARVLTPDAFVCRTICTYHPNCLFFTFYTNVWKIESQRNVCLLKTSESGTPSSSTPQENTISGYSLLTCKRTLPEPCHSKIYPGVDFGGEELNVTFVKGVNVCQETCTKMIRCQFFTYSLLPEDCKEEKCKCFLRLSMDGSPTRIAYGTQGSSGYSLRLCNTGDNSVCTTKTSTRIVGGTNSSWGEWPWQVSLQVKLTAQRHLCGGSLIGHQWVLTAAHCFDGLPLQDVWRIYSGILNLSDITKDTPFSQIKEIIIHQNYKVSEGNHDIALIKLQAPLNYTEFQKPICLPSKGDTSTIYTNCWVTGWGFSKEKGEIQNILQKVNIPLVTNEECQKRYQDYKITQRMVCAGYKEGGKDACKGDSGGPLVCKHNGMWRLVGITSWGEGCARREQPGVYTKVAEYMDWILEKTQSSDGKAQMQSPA
T1 sequence (P03952 20-638): as above

pGlu-Arg-Pro-Arg-NMeLeu-Ser-His-Lys-Gly-Pro-Nle-Aib-paraBrPhe
cleaved bond [1]: Nle11-Aib12, minor

pGlu-Arg-Pro-Arg-azaLeu-Ser-His-Lys-Gly-Pro-Nle-Aib-paraBrPhe
cleaved bond [1]: Nle11-Aib12, minor

pGlu-Arg-Pro-Arg-αMeLeu-Ser-His-Lys-Gly-Pro-Nle-Aib-paraBrPhe
cleaved bond [1]: Nle11-Aib12, minor

pGlu-Arg-Pro-azaArg-Leu-Ser-His-Lys-Gly-Pro-Nle-Aib-paraBrPhe
cleaved bond [1]: Nle11-Aib12, minor

CCCCCCCCCCCCCCCC(=O)N[C@@H](CCCCN)C(=O)N[C@@H](Cc1ccccc1)C(=O)N[C@@H](CCCNC(=N)N)C(=O)N[C@@H](CCCNC(=N)N)C(=O)N[C@@H](CCC(N)=O)C(=O)N[C@@H](CCCNC(=N)N)C(=O)N1CCC[C@H]1C(=O)N[C@@H](CCCNC(=N)N)C(=O)N[C@@H](CC(C)C)C(=O)N[C@@H](CO)C(=O)N[C@@H](Cc1cnc[nH]1)C(=O)N[C@@H](CCCCN)C(=O)NCC(=O)N1CCC[C@H]1C(=O)N[C@@H](CCCC)C(=O)NC(C)(C)C(=O)N[C@@H](Cc1ccc(Br)cc1)C(=O)O [Peptide 56] (Palmitoyl-KFRRQRPRLSHKGP[Nle][Aib][Phe(4-Br)]-OH)
Degradation Onset Timepoint with KLKB1 [2]: 1 h | half-life [3]: 1 h | half-life [4]: 1.5 h

CCCC[C@H](NC(=O)[C@@H]1CCCN1C(=O)CNC(=O)[C@H](CCCCN)NC(=O)[C@H](Cc1c[nH]cn1)NC(=O)[C@H](CO)NC(=O)N(CC(C)C)NC(=O)[C@H](CCCNC(=N)N)NC(=O)[C@@H]1CCCN1C(=O)[C@H](CCCNC(=N)N)NC(=O)[C@@H]1CCC(=O)N1)C(=O)NC(C)(C)C(=O)N[C@@H](Cc1ccc(Br)cc1)C(=O)O [Peptide 18, pGlu-Arg-Pro-Arg-azaLeu-Ser-His-Lys-Gly-Pro-Nle-Aib-paraBrPhe] ([pGlu]RPR[azaLeu]SHKGP[Nle][Aib][Phe(4-Br)]-OH; C-terminus assumed)
Ki ([5]; displacement of [125I]-pyr-1-apelin-13 (0.2 nM), CHO membranes, rat apelin receptor-EGFP, means ± SE, read-out: Affinity Ki): 0.13 ± 0.063 nM | receptor binding affinity (in words) ([5]; rat apelin receptor): modest improvement in receptor binding | remaining at 0.5 h, 80 µM [6]: 19 ± 5% | remaining at 1 h, 80 µM [6]: 2 ± 1% | ability to rescue the heart from ischemic reperfusion injury [7]: behaved comparably to that of the negative saline control

CCCCCCCCCCCCCCCC(=O)N[C@@H](CCCCN)C(=O)N[C@@H](Cc1ccccc1)C(=O)N[C@@H](CCCNC(=N)N)C(=O)N[C@@H](CCCNC(=N)N)C(=O)N[C@@H](CCC(N)=O)C(=O)N[C@@H](CCCNC(=N)N)C(=O)N1CCC[C@H]1C(=O)N[C@@H](CCCNC(=N)N)C(=O)N(C)[C@@H](CC(C)C)C(=O)N[C@@H](CO)C(=O)N[C@@H](Cc1cnc[nH]1)C(=O)N[C@@H](CCCCN)C(=O)NCC(=O)N1CCC[C@H]1C(=O)N[C@@H](CCCC)C(=O)NC(C)(C)C(=O)N[C@@H](Cc1ccc(Br)cc1)C(=O)O [Peptide 58] (Palmitoyl-KFRRQRPR[NMeL]SHKGP[Nle][Aib][Phe(4-Br)]-OH)
Degradation Onset Timepoint with KLKB1 [2]: 2 h | half-life [3]: 2.1 h | half-life [4]: > 30 h

Lys-Phe-Arg-Arg-Gln-Arg-Pro-Arg-azaLeu-Ser-His-Lys-Gly-Pro-Nle-Aib-paraBrPhe
cleaved bond [1]: Nle15-Aib16, minor

Lys-Phe-Arg-Arg-Gln-Arg-Pro-Arg-αMeLeu-Ser-His-Lys-Gly-Pro-Nle-Aib-paraBrPhe
cleaved bond [1]: Nle15-Aib16, minor

Lys-Phe-Arg-Arg-Gln-Arg-Pro-αMeArg-Leu-Ser-His-Lys-Gly-Pro-Nle-Aib-paraBrPhe
cleaved bond [1]: Nle15-Aib16, minor
